Measurements as given in article PMC4467147, “Identification of epipolythiodioxopiperazines HDN-1 and chaetocin as novel inhibitor of heat shock protein 90” (Oncotarget, 2015).
Read-outs that look alike come from different tables or passages of the source.

Key:
H1975 cells [1] = experiment: Drug combination study HDN-1 and 17-AAG, MTT assay, H1975; type: cell-based, human; settings: H1975, 72 h
Description: (§1) A modified tetrazolium salt assay was used to measure the inhibition of cancer cell growth. Cancer cells were plated into a 96-well microtiter plate containing 0.1 ml of growth media/well for 24 h, then were incubated with HDN-1 at indicated concentrations dissolved in DMSO for 72 h. 3-(4,5-Dimethylthiazol-2-yl)-2,5- diphenyltetrazoliumbromide (MTT) was added to each well of a 96-well plate. After 4 h incubation, the formazan product was dissolved and quantitated spectrophotometrically at a wavelength of 560 nm. Percent viability of each sample was calculated from the A560 values as follows: % viability = (A560 nm sample / A560 nm DMSO-treated cells × 100). The IC50 was defined as the concentration that gave rise to 50% inhibition of cell viability.
H1975 cell were seeded in triplicate in 96-well plates and treated with HDN-1 or 17-AAG alone or with the combination of HDN-1 and 17-AAG at the indicated doses. MTT assays were performed after 72 h of treatment. The Q (value) was calculated according to Jin's formula: Q = Ea+b/(Ea+Eb−Ea × Eb). Ea+b represented the inhibition rate of drug combination, Ea and Eb represented the inhibition rate of drug A and B alone, respectively. Q (value) = 0.85–1.15 stands for additivity, Q (value) > 1.15–2.0 stands for synergism, and Q (value) < 0.85–0.55 stands for antagonism.

Hsp90 client proteins = experiment: Western blotting of Hsp90 client proteins and Hsp70 in NSCLC cells; type: cell-based, human; settings: for effect on level of SUV39H1: 24 h; for effect on Hsp90 client protein levels (EGFR, Akt, Cyclin D1 etc.): NSCLC cells
Description: Cells were incubated with HDN-1 at indicated concentrations and time, then washed with PBS twice, disrupted on ice for 30 min in loading buffer, and boiled for 10 min. Protein concentration was determined with BCA reagent. Equal amounts of protein in cell lysates were separated by SDS-PAGE, transferred to membranes, immunoblotted with indicated primary and secondary antibodies, and detected by chemiluminescence with the enhanced chemiluminescence detection reagents (PIERCE). The antibodies of following proteins were used: EGFR, phosphorylated EGFR (Tyr1068), Akt, phosphorylated Akt (Ser473), MAPK, phosphorylated MAPK (Thr202/Tyr204), ubiquitin, Hsp70, β-Actin; Abl, Stat3, phosphorylated Stat3 (Ser727), Raf-1, cyclin D1. For immunoprecipitation assay, cell lysate protein was incubated overnight at 4°C with the designated antibody and protein G-Sepharose (Amersham Biosciences) was added overnight while rocking. Precipitates were washed three times with lysis buffer and once with PBS, resuspended in 2 × loading buffer, and resolved by SDS-PAGE followed by immunoblot analysis.

[2] = target: T1, C-terminal Hsp90 fragment (535–732aa) of human Hsp90α (Homo sapiens, UniProt P07900); experiment: ForteBio Octet binding to biotinylated C-terminal Hsp90α; settings: Octet RED96, read-out: Kd for C-terminus of Hsp90α
T1 construct: recombinant C-terminal Hsp90 fragment (535–732aa) of human Hsp90α
Description: (§2) SPR analysis was carried out with a ProteOn XPR36 instrument (Bio-Rad) or ForteBio's Octet RED96 to determine binding of various molecules to full length Hsp90α or C-terminal Hsp90α. For full length Hsp90α, Hsp90α was coupled to the surface of a GLH sensor chip using amine coupling. The coupling has been performed according to the manufacturer's instructions. Binding experiments were performed with multiple concentrations of HDN-1 and chaetocin running over the surface of the chip at 25°C, at a constant flow rate of 30 μl/min in PBS-T (10 mM Phosphate, 150 mM NaCl, pH 7.4 and 0.005% Tween20 [v/v]). The sensor chip surface was regenerated using 0.85% H3PO4. Changes in mass due to the binding response were recorded as resonance units (RU). To obtain the dissociation constant (Kd), these responses were fit to a 1:1 Langmuir binding model by nonlinear regression using the BiaEvaluation 4.1 software program. For interplay of HDN-1 with other molecules, 50 μM 17-AAG, 50 μM novobiocin, or 100 μM ATP was injected into Hsp90α-immobilized chip and the RU values were recorded in succession for indicated time, then these compounds were replaced by 50 μM HDN-1, and RU values were recorded unceasingly. Similar experiments were conversely performed and RU values were recorded. […] Binding of samples (31.25–500 μM) to coated and uncoated reference sensors was measured over 60 s. […]

H1975 cells [3] = experiment: MTT cell viability assay, H1975; type: cell-based; settings: Homo sapiens, NCI-H1975, H1975, 72 h, read-out: IC50 cell proliferation
Description: as §1

A549 cells = experiment: MTT cell viability assay, A549; type: cell-based, human; settings: A549, 72 h, read-out: IC50 cell proliferation
Description: as §1

full length Hsp90α = target: T2, full length Hsp90α (Homo sapiens, UniProt P07900); experiment: SPR binding to full-length Hsp90α immobilized on sensor chip; settings: 25°C, 1:1 Langmuir model, read-out: dissociation constant (Kd) for full-length Hsp90α
T2 construct: For full length Hsp90α, Hsp90α was coupled to the surface of a GLH sensor chip using amine coupling
Description: as §2

Hsp90α = target: T3, Hsp90α (Homo sapiens, UniProt P07900); experiment: Fluorescence polarization competitive assay, displacement of FITC-GA from Hsp90α; settings: 200 nM FITC-GA, 30 nM Hsp90α; read-out: IC50, effect on the binding of GA to Hsp90
T3 construct: For full length Hsp90α, Hsp90α was coupled to the surface of a GLH sensor chip using amine coupling
Description: Fluorescence polarization assays were performed under the following conditions: each 96-well plate contained 200 nM FITC-GA, Hsp90α (30 nM), and tested inhibitor (initial stock in DMSO) in a final volume of 100 μl. For each assay, background wells (buffer only), tracer controls (free, FITC-GA only), and bound GA controls (fluorescent GA in the presence of Hsp90) were included on each assay plate. The fraction of tracer bound to Hsp90 was correlated to the mP value and plotted against log10 values of competitor concentrations. The HDN-1 and 17-AAG concentrations at which 50% of bound GA was displaced was obtained by fitting the data. Fluorescence intensity measurements were obtained using a SpectraMax M5 (Molecular Devices, Sunnyvale, CA). The excitation and emission wavelengths were 485 nm and 530 nm, respectively.

Hsp90α ATPase = Hsp90α ATPase (Homo sapiens, UniProt P07900); experiment: Hsp90α ATPase activity; type: biochemical; settings: data not shown
HCC827 cells = experiment: MTT cell viability assay, HCC827; type: cell-based, human; settings: HCC827, 72 h, read-out: IC50 cell proliferation
Description: as §1

[4] = target: C-terminus of ATP binding site (660–680 aa) of Hsp90α; set-up: method as in PMID 11751878; settings: read-out: binding affinity to C-terminus of ATP binding site of Hsp90α; cited from earlier work

For `C=CCNC1=C2C[C@@H](C)C[C@H](OC)[C@H](O)[C@@H](C)/C=C(\C)[C@H](OC(N)=O)[C@@H](OC)/C=C\C=C(/C)C(=O)NC(=CC1=O)C2=O` [17-AAG], the “Inhibition Rate Mean” value (H1975 cells [1]; single agent 100 nM) was 0.070, the “Inhibition Rate Mean” value (H1975 cells [1]; single agent 200 nM) was 0.267 and the “Inhibition Rate Mean” value (H1975 cells [1]; single agent 300 nM) was 0.393.
For `CN1C(=O)[C@]23SSS[C@@]1(CO)C(=O)N2[C@H]1Nc2ccccc2C1(C12c4ccccc4N[C@@H]1N1C(=O)[C@]4(CO)SS[C@]1(C(=O)N4C)[C@H]2O)[C@@H]3O` (stereo partly shown) [HDN-1], the “effect on level of SUV39H1” value (Hsp90 client proteins; Western blotting) was “decline”, the “effect on Hsp70 expression” value (Hsp90 client proteins; H1975, HCC827, A549 cells, Western blotting) was “did not obviously affect” and the “effect on HIF-1α” value (Hsp90 client proteins; H1975 and A549 cells, CoCl2-induced hypoxia or 5% CO2 and 2% O2) was “degraded”. For the same molecule, the “effect on Hsp90 client protein levels (EGFR, Akt, Cyclin D1 etc.)” value (Hsp90 client proteins; Western blotting) was “reduced the expression levels”, the Kd [2] was 201 µM and the IC50 (H1975 cells [3]) was 0.22 µM. For the same molecule, the IC50 (A549 cells) was 0.54 µM, the IC50 (A549 cells; Homo sapiens) was 1.06 µM and the Kd (full length Hsp90α) was 14.6 µM. The IC50 (Hsp90α) was over 10 µM, the “effect on Hsp90α ATPase activity” value (Hsp90α ATPase) was “no effect” and the IC50 (HCC827 cells) was 1.06 µM. For the same molecule, the IC50 (HCC827 cells; Homo sapiens) was 0.54 µM, the inhibition at 0.1 µM (H1975 cells [1]; Homo sapiens, NCI-H1975, single agent 100 nM, read-out: Inhibition Rate Mean) was 5.1% and the inhibition at 0.2 µM (H1975 cells [1]; Homo sapiens, NCI-H1975, single agent 200 nM, read-out: Inhibition Rate Mean) was 37.1%.
For `CO[C@@H]1[C@@H](OC(N)=O)[C@@H](O)[C@H](Oc2ccc3c(O)c(NC(=O)c4ccc(O)c(CC=C(C)C)c4)c(=O)oc3c2C)OC1(C)C` [Novobiocin], the Kd [4] is given as about 3300 µM.
For `CN1C(=O)[C@@]23C[C@]4([C@]56C[C@@]78SS[C@@](CO)(C(=O)N7[C@H]5Nc5ccccc56)N(C)C8=O)c5ccccc5N[C@@H]4N2C(=O)[C@]1(CO)SS3` [chaetocin], the “effect on level of SUV39H1” value (Hsp90 client proteins; Western blotting) was “decline”, the “effect on Hsp90 client protein levels (EGFR, Akt, Cyclin D1 etc.)” value (Hsp90 client proteins; Western blotting) was “degraded client proteins” and the Kd (full length Hsp90α) was 16.8 µM.
